From publication PMC12700550, “DLL4^+ neutrophils promote Notch1-mediated endothelial PANoptosis to exacerbate acute lung injury in sepsis” (The Journal of Clinical Investigation, 2025)

Tests used:
p-MLKL = experiment: p-MLKL/MLKL (necroptosis) in PVECs cocultured with neutrophils, Western blot; format: cell-based, mouse; conditions: DAPT
Protocol: (§1) Wild-type PVECs (5 × 10^5) were cocultured with sorted DLL4^+ neutrophils (5 × 10^5) or DLL4^– neutrophils (5 × 10^5) and then treated with different dosages of peptides or 10 μM DAPT (Thermo Fisher Scientific), 10 μM NDI (GenScript), or 10 μM NDI scramble (GenScript). Notch1-knockdown PVECs (5 × 10^5) were cocultured with sorted DLL4^+ neutrophils (5 × 10^5). After 16 hours, neutrophils were washed away by PBS, and PVECs were collected for further experiments. Cell viability was evaluated by propidium iodide staining using the FITC Annexin V Apoptosis Detection Kit I (catalog 556547, BD Pharmingen). Cell death was quantified as the percentage of propidium iodide–positive cells by flow cytometry.
(§2) PVECs and lung tissue were collected in previous steps. Whole-cell proteins were extracted, and the protein concentration was measured using an ABC protein assay kit (catalog 5000002, Bio-Rad). Proteins were separated using NuPAGE 4%–12% Bis-Tris gels (Invitrogen), transferred to PVDF membranes, and immunoblotted with the antibodies indicated in the figure legends according to the manufacturer’s recommendations. The ZBP1 antibody (catalog PA5-20455; 1:1,000) used in this study was obtained from Thermo Fisher Scientific, and the c-GSDMD (catalog 10137S; 1:250), GSDMD (catalog 39754S; 1:1000), c-caspase-3 (catalog 9661L; 1:250), caspase-3 (catalog 9662S; 1:1,000), p-MLKL (catalog 37333S; 1:250), MLKL (catalog 37705S; 1:1,000), N1ICD (c-Notch1) (catalog 4147S; 1:250), and Notch1 (catalog 3608S; 1:1,000) antibodies were obtained from Cell Signaling Technology. GAPDH (catalog 60004-1-Ig; 1:10,000) and β-actin (catalog A5441, Sigma-Aldrich; 1:5,000) were obtained from ProteinTech. After the blots were incubated with primary antibodies, the membranes were washed 3 times, and the blots were subsequently incubated with the corresponding fluorescent secondary antibody (LI-COR). Bands were detected using an Odyssey FC Dual-Mode Imaging system 2800 (LI-COR).

c-GSDMD = experiment: c/t GSDMD (pyroptosis) in PVECs cocultured with neutrophils, Western blot; format: cell-based, mouse; conditions: DAPT
Protocol: as §1, §2

c-caspase-3 = experiment: c/t caspase-3 (apoptosis) in PVECs cocultured with neutrophils, Western blot; format: cell-based, mouse; conditions: DAPT
Protocol: as §1, §2

ZBP1 [1] = experiment: ZBP1 mRNA in PVECs cocultured with neutrophils, RT-PCR (DAPT, NDI, peptides 1–5); format: cell-based, mouse; conditions: DAPT, DLL4^+ neutrophil–PVEC coculture
Protocol: Immortalized mouse (Mus musculus) lung endothelial cells with polyoma middle T (PVECs) were purchased from Applied Biological Materials Inc. (ABM) and grown in 1:1 PriGrow VI Medium and PriGrow IV Medium (ABM).
as §1
mRNA was extracted from lung tissues with TRIzol reagent (Invitrogen, Thermo Fisher Scientific). An equal amount ([…]) of mRNA was reverse-transcribed into cDNA using the reverse transcriptase enzyme (Invitrogen, Thermo Fisher Scientific). qPCR was performed from the diluted cDNA templates with forward and reverse primers (Supplemental Table 4) and SYBR Green PCR Master Mix (Applied Biosystems, Thermo Fisher Scientific) using an Applied Biosystems 7300 real-time PCR machine. Mouse β-actin served as an internal control gene for normalization. Relative expression of mRNA was represented as fold change in comparison with the sham group.

ZBP1 [2] = experiment: ZBP1 protein in PVECs cocultured with neutrophils, Western blot; format: cell-based, mouse; conditions: DAPT
Protocol: as §1, §2

[3] = target: Recombinant murine (rm) Notch1 (murine) (UniProt Q01705); experiment: SPR; as a1, same HS-NTA sensor with rmNotch1; rmDLL4 at all concentrations preincubated with 1 ug/mL NDI for 30 minutes at room temperature before injection; 40 uL/min, 20°C; global 1:1 fit
Sequence of Recombinant murine (rm) Notch1 (murine) (Q01705 19-2531): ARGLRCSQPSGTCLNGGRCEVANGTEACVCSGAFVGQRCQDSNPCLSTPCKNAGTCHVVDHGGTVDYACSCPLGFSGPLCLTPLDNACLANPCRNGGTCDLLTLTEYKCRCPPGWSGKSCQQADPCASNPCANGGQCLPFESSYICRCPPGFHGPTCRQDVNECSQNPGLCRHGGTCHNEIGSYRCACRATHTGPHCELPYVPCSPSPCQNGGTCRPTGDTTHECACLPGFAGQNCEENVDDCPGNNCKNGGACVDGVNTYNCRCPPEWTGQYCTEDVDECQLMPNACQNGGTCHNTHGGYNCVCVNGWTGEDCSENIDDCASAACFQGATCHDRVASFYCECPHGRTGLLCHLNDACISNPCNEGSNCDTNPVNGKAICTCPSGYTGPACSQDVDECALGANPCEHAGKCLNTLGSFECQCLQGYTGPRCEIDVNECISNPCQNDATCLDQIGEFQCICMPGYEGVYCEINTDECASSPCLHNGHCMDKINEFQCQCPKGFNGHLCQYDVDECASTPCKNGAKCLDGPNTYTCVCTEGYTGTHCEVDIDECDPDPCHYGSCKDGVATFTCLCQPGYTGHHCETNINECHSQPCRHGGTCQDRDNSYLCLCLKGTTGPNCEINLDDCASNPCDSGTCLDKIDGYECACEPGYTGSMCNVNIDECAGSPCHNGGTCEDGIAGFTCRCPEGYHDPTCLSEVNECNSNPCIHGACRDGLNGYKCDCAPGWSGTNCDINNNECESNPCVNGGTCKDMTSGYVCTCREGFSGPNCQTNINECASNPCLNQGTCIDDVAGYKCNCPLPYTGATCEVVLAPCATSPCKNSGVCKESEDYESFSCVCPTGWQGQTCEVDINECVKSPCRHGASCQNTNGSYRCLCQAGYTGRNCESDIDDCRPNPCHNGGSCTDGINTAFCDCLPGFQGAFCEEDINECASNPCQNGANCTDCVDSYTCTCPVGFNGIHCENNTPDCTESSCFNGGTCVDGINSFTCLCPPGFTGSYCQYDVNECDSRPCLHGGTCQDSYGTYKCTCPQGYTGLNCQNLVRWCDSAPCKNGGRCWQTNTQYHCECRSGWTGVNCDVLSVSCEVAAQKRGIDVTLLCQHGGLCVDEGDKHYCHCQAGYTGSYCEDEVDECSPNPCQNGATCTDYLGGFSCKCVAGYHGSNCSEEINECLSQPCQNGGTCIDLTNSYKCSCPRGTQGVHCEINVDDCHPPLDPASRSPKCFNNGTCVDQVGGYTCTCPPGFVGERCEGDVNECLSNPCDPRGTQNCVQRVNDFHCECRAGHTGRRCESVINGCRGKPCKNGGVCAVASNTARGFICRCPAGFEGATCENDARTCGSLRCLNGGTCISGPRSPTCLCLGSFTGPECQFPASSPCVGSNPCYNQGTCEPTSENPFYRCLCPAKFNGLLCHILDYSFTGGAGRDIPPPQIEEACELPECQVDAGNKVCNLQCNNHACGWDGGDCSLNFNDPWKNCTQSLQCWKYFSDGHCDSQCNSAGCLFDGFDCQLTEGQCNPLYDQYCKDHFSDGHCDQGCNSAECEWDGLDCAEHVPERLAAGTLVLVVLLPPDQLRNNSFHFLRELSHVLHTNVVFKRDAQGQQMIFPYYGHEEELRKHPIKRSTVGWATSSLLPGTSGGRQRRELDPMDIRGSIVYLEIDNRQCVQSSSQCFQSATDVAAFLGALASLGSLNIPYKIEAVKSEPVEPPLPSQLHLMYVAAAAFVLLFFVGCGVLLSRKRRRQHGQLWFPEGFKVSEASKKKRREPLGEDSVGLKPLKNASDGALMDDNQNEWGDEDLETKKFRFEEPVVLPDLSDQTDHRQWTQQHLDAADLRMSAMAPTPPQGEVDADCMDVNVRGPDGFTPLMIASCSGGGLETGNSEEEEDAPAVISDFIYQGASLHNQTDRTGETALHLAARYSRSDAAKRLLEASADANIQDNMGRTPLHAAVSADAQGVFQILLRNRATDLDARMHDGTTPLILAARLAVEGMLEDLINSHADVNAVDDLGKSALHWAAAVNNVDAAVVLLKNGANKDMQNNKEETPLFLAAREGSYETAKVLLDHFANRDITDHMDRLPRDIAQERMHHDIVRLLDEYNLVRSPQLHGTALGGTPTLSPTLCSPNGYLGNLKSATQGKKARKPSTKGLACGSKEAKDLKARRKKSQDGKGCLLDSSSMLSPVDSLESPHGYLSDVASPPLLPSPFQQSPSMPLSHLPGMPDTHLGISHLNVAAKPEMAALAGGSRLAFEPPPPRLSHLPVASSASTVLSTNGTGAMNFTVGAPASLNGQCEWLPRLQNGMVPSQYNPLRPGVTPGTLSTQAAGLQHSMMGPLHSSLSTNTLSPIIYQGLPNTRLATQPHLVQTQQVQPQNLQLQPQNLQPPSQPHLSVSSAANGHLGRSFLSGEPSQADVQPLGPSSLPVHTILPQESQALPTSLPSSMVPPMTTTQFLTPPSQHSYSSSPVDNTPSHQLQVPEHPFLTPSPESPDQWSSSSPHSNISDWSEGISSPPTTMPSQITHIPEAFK

[4] = target: Recombinant murine (rm) Notch1 (murine) (UniProt Q01705); experiment: SPR; OpenSPR (Nicoya), HS-NTA sensor activated with NiCl2; rmNotch1 (25 ug/mL) immobilised on channel 2; rmDLL4 as analyte at 5, 12.5, 50 and 100 nM, 40 uL/min; PBS, 0.005% P20, pH 7.4; channel 1 subtracted; global 1:1 fit
rmNotch1 = target: T1, rmNotch1 (Mus musculus, UniProt Q01705); experiment: BIAcore assay (surface plasmon resonance), rmDLL4 to immobilized rmNotch1; format: binding, murine; conditions: OpenSPR, HS-NTA sensor, rmDLL4 5–100 nM, PBS 0.005% P20 pH 7.4, 20°C, 1:1 fit; without NDI; read-out: KD between DLL4 and Notch1
T1 construct: purchased R&D Systems 5267-TK (rmNotch1); 1389-D4-050/CF (rmDLL4)
T1 sequence (Q01705 with tags, fused parts or gaps limits assumed, one chain of several): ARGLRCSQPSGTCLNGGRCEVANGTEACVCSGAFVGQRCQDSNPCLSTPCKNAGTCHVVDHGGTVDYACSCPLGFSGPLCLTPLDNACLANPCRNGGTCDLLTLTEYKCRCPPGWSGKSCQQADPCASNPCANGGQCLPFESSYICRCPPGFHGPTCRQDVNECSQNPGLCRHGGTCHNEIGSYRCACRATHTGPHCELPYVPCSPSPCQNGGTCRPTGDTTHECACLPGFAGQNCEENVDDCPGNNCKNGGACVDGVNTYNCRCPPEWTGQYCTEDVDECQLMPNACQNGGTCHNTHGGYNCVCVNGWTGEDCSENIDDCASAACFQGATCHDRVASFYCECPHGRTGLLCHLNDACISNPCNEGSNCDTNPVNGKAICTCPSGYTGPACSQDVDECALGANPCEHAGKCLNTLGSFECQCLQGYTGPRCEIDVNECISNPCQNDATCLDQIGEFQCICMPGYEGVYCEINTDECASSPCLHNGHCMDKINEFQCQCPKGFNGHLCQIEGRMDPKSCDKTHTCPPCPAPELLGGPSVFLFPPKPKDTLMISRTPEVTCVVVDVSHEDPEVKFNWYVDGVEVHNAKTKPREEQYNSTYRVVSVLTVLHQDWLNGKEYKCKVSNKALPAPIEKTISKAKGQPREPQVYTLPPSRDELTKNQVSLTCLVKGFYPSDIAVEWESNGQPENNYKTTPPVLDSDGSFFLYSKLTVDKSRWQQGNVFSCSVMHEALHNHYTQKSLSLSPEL
Protocol: To determine rmDLL4’s direct interaction with rmNotch1, surface plasmon resonance (OpenSPR, Nicoya) was performed. High-sensitivity nitrilotriacetic acid (HS-NTA) sensors were used. Binding reactions were performed in running buffer (PBS, 0.005% P20, pH 7.4). The HS-NTA sensor was first cleaned by injection with 10 mM HCl (150 μL) followed by injection of 150 μL of 350 mM EDTA. […] For the effect of NDI efficacy on rmDLL4 binding to rmNotch1, the same HS-NTA sensor was used. rmDLL4 at all the concentrations used for binding with rmNotch1 was preincubated with 1 μg/mL NDI for 30 minutes at room temperature, and then the complexes were injected to channels 1 and 2. Binding reactions were carried out with the same running buffer at a flow rate of 40 μL/min at 20°C. Channel 1 was used as a control to evaluate nonspecific binding. The real-time interaction data were analyzed by Trace Drawer (Nicoya). The signals from channel 1 were subtracted from channel 2 coated with the ligand for all samples. Data were globally fitted for 1:1 binding (one-to-one model).

[5] = DLL4^+ neutrophil–stimulated PVECs
[6] = DLL4^– neutrophil–treated PVECs

C[C@H](NC(=O)Cc1cc(F)cc(F)c1)C(=O)N[C@H](C(=O)OC(C)(C)C)c1ccccc1 [DAPT, N-[N-(3,5-difluorophenacetyl)-L-alanyl]-S-phenylglycine t-butyl ester, reference compound]
effect on p-MLKL (p-MLKL; [5]): significantly reduced the elevated expression
effect on p-MLKL (p-MLKL; [6]): did not significantly reduce
effect on c-GSDMD (c-GSDMD; [5]): significantly reduced the elevated expression
effect on c-GSDMD (c-GSDMD; [6]): did not significantly reduce
effect on c-caspase-3 (c-caspase-3; [5]): significantly reduced the elevated expression
effect on c-caspase-3 (c-caspase-3; [6]): did not significantly reduce
effect on ZBP1 mRNA (ZBP1 [1]): reduced it to the baseline levels
effect on ZBP1 (ZBP1 [2]; [5]): significantly reduced the elevated expression
effect on ZBP1 (ZBP1 [2]; [6]): did not significantly reduce

Recombinant murine (rm) DLL4 (from UniProt Q9JI71 27-532) (ligand)
KD with NDI present [3]: 237 nM
Kd [4]: 42.6 nM

B1: DLL4: Recombinant murine DLL4, R&D Systems (protein)
chain: GSGIFQLRLQEFVNQRGMLANGQSCEPGCRTFFRICLKHFQATFSEGPCTFGNVSTPVLGTNSFVVRDKNSGSGRNPLQLPFNFTWPGTFSLNIQAWHTPGDDLRPETSPGNSLISQIIIQGSLAVGKIWRTDEQNDTLTRLSYSYRVICSDNYYGESCSRLCKKRDDHFGHYECQPDGSLSCLPGWTGKYCDQPICLSGCHEQNGYCSKPDECICRPGWQGRLCNECIPHNGCRHGTCSIPWQCACDEGWGGLFCDQDLNYCTHHSPCKNGSTCSNSGPKGYTCTCLPGYTGEHCELGLSKCASNPCRNGGSCKDQENSYHCLCPPGYYGQHCEHSTLTCADSPCFNGGSCRERNQGSSYACECPPNFTGSNCEKKVDRCTSNPCANGGQCQNRGPSRTCRCRPGFTGTHCELHISDCARSPCAHGGTCHDLENGPVCTCPAGFSGRRCEVRITHDACASGPCFNGATCYTGLSPNNFVCNCPYGFVGSRCEFPVGLPPSFPWVA
Kd (rmNotch1): 42.6 nM
